Test results published in PMC9206137, “Synergistic anti-SARS-CoV-2 activity of repurposed anti-parasitic drug combinations” (BMC Pharmacology & Toxicology, 2022).
Values joined by “and” are separate entries in the source; they are usually repeats but may differ in a detail not shown here. Equal values may be shown once.

Key:
SARS-CoV-2 [1] = experiment: Antiviral activity against SARS-CoV-2 in Vero E6 cells, plaque assay; format: cell-based
SARS-CoV-2 [2] = experiment: microbe, parasite or virus in culture; format: cell-based; conditions: for % inhibition: Calu-3 cells
Vero E6 cells = experiment: Cell viability assay (MTT) in Vero E6 cells; conditions: replicates; for %cell viability: Vero E6; for cell viability: Vero E6 cells
Procedure: (§1) Subsequently, the cell viability was assessed using MTT dyes (Invitrogen) in duplicate (Supplementary file 1). The procedure was described elsewhere. The viability of drug-treated cells was expressed as percent cell viability relative to 0.5% DMSO-treated cells.

[3] = Cell viability assay (MTT) in Vero E6 cells; conditions: African green monkey, Vero E6 cells
Procedure: as §1

Calu-3 cells = experiment: Cell viability assay (MTT) in Calu-3 cells; conditions: replicates; for %cell viability: Calu-3; for cell viability: Calu-3 cells
Procedure: as §1

[4] = Cell viability assay (MTT) in Calu-3 cells; conditions: human, Calu-3 cells
Procedure: as §1

SARS-CoV-2 [5] = experiment: Antiviral activity against SARS-CoV-2 in Vero E6 cells, one-step qRT-PCR (single drugs, two-drug combinations, synergy analysis); conditions: for %inhibition (qRT-PCR) / % inhibition: replicates; for % inhibition: Vero E6 cells

O=C(Nc1ccc([N+](=O)[O-])cc1Cl)c1cc(Cl)ccc1O [Niclosamide, niclosamide]
inhibition at 0.00390625 µM (SARS-CoV-2 [1]; Severe acute respiratory syndrome coronavirus 2, Vero C1008, Vero E6, niclosamide 0.00390625 uM, replicates): 11.5% | inhibition at 0.015625 µM (SARS-CoV-2 [1]; Severe acute respiratory syndrome coronavirus 2, Vero C1008, Vero E6, niclosamide 0.015625 uM, replicates): 23.2% | inhibition at 0.03125 µM (SARS-CoV-2 [1]; Severe acute respiratory syndrome coronavirus 2, Vero C1008, Vero E6, niclosamide 0.03125 uM, replicates): 23.7% | inhibition at 0.0625 µM (SARS-CoV-2 [1]; Severe acute respiratory syndrome coronavirus 2, Vero C1008, Vero E6, niclosamide 0.0625 uM, replicates): 40.1% | inhibition at 0.125 µM (SARS-CoV-2 [1]; Severe acute respiratory syndrome coronavirus 2, Vero C1008, Vero E6, niclosamide 0.125 uM, replicates): 84.6% | IC50 (SARS-CoV-2 [1]; Severe acute respiratory syndrome coronavirus 2, Vero C1008, Vero E6, MOI 0.01, 48 hours, single drug): 0.049 µM | %inhibition (plaque assay) (SARS-CoV-2 [1]; Vero E6, niclosamide 0.00390625 uM, replicates): 9.45% and 9.72% | %inhibition (plaque assay) (SARS-CoV-2 [1]; Vero E6, niclosamide 0.0078125 uM, replicates): 5.39% and 21.29% and 14.01% | %inhibition (plaque assay) (SARS-CoV-2 [1]; Vero E6, niclosamide 0.015625 uM, replicates): 25.26% and 23.12% | %inhibition (plaque assay) (SARS-CoV-2 [1]; Vero E6, niclosamide 0.03125 uM, replicates): 28.44% and 31.03% | %inhibition (plaque assay) (SARS-CoV-2 [1]; Vero E6, niclosamide 0.0625 uM, replicates): 40.15% and 40.02% | %inhibition (plaque assay) (SARS-CoV-2 [1]; Vero E6, niclosamide 0.125 uM, replicates): 97.12% and 94.56% | SI (SARS-CoV-2 [2]; Calu-3): 28.1 | %inhibition (plaque assay) (SARS-CoV-2 [2]; Calu-3, niclosamide 0.039063 uM, replicates): 23.81% (2×) and 35.24% | %inhibition (plaque assay) (SARS-CoV-2 [2]; Calu-3, niclosamide 0.078125 uM, replicates): 35.24% and 39.05% | %inhibition (plaque assay) (SARS-CoV-2 [2]; Calu-3, niclosamide 0.15625 uM, replicates): 35.24% and 42.86% and 20.00% | %inhibition (plaque assay) (SARS-CoV-2 [2]; Calu-3, niclosamide 0.3125 uM, replicates): 69.52% and 61.90% | %inhibition (plaque assay) (SARS-CoV-2 [2]; Calu-3, niclosamide 0.625 uM, replicates): 61.90% | %inhibition (plaque assay) (SARS-CoV-2 [2]; Calu-3, niclosamide 1.25 uM, replicates): 69.52% and 80.95% | % inhibition (SARS-CoV-2 [2]; Niclosamide 0.05 uM alone, replicates): 33.33% and 13.33% (2×) | % inhibition (SARS-CoV-2 [2]; Niclosamide 0.10 uM alone, replicates): 40.00% | % inhibition (SARS-CoV-2 [2]; Niclosamide 0.40 uM alone, replicates): 70.00% | inhibition at 0.039063 µM (SARS-CoV-2 [2]; Severe acute respiratory syndrome coronavirus 2, Calu-3, Calu-3, niclosamide 0.039063 uM, replicates, read-out: %inhibition (plaque assay)): 31.4% | inhibition at 0.078125 µM (SARS-CoV-2 [2]; Severe acute respiratory syndrome coronavirus 2, Calu-3, Calu-3, niclosamide 0.078125 uM, replicates, read-out: %inhibition (plaque assay)): 31.4% | inhibition at 0.1 µM (SARS-CoV-2 [2]; Severe acute respiratory syndrome coronavirus 2, Calu-3, Calu-3, niclosamide 0.1 uM alone): 46.7 ± 6.67% | inhibition at 0.2 µM (SARS-CoV-2 [2]; Severe acute respiratory syndrome coronavirus 2, Calu-3, Calu-3, niclosamide 0.2 uM alone): 53.3 ± 6.67% | inhibition at 0.3125 µM (SARS-CoV-2 [2]; Severe acute respiratory syndrome coronavirus 2, Calu-3, Calu-3, niclosamide 0.3125 uM, replicates, read-out: %inhibition (plaque assay)): 73.3% | inhibition at 0.4 µM (SARS-CoV-2 [2]; Severe acute respiratory syndrome coronavirus 2, Calu-3, Calu-3, niclosamide 0.4 uM alone): 61.1 ± 8.39% | inhibition at 0.625 µM (SARS-CoV-2 [2]; Severe acute respiratory syndrome coronavirus 2, Calu-3, Calu-3, niclosamide 0.625 uM, replicates, read-out: %inhibition (plaque assay)): 65.7% | inhibition at 1.25 µM (SARS-CoV-2 [2]; Severe acute respiratory syndrome coronavirus 2, Calu-3, Calu-3, niclosamide 1.25 uM, replicates, read-out: %inhibition (plaque assay)): 73.3% | inhibition at 0.1 µM (SARS-CoV-2 [2]; Severe acute respiratory syndrome coronavirus 2, Calu-3, Calu-3 cells, Niclosamide 0.10 uM alone, replicates): 53.3% | inhibition at 0.2 µM (SARS-CoV-2 [2]; Severe acute respiratory syndrome coronavirus 2, Calu-3, Calu-3 cells, Niclosamide 0.20 uM alone, replicates): 53.3% | inhibition at 0.4 µM (SARS-CoV-2 [2]; Severe acute respiratory syndrome coronavirus 2, Calu-3, Calu-3 cells, Niclosamide 0.40 uM alone, replicates): 60% | IC50 (SARS-CoV-2 [2]; Severe acute respiratory syndrome coronavirus 2, Calu-3, 500 TCID50, plaque assay, single drug): 200 nM | %cell viability (Vero E6 cells; niclosamide 0.00390625 uM): 92.84% | %cell viability (Vero E6 cells; niclosamide 0.0078125 uM): 91.90% | %cell viability (Vero E6 cells; niclosamide 0.015625 uM): 92.98% | %cell viability (Vero E6 cells; niclosamide 0.03125 uM): 90.36% | %cell viability (Vero E6 cells; niclosamide 0.0625 uM): 90.95% | %cell viability (Vero E6 cells; niclosamide 0.125 uM): 88.11% | %cell viability (Vero E6 cells; niclosamide 0.25 uM): 54.41% | %cell viability (Vero E6 cells; niclosamide 0.5 uM): 25.91% | cell viability (Vero E6 cells; Niclosamide 0.01125 uM alone): 91.66 and 92.98 | cell viability (Vero E6 cells; Niclosamide 0.0225 uM alone): 92.73 and 90.36 | cell viability (Vero E6 cells; Niclosamide 0.045 uM alone): 94.97 and 90.95 | cell viability (Vero E6 cells; Niclosamide 0.09 uM alone): 89.48 and 90.50 | CC50 at 48 h [3]: 290 nM | viability at 48 h, 0.00390625 uM ([3]; %cell viability, Vero E6, niclosamide 0.00390625 uM, replicates): 98.6% | viability at 48 h, 0.0078125 uM ([3]; %cell viability, Vero E6, niclosamide 0.0078125 uM, replicates): 97.7% | viability at 48 h, 0.015625 uM ([3]; %cell viability, Vero E6, niclosamide 0.015625 uM, replicates): 91.7% | viability at 48 h, 0.03125 uM ([3]; %cell viability, Vero E6, niclosamide 0.03125 uM, replicates): 92.7% | viability at 48 h, 0.0625 uM ([3]; %cell viability, Vero E6, niclosamide 0.0625 uM, replicates): 95% | viability at 48 h, 0.125 uM ([3]; %cell viability, Vero E6, niclosamide 0.125 uM, replicates): 91.3% | viability at 48 h, 0.25 uM ([3]; %cell viability, Vero E6, niclosamide 0.25 uM, replicates): 59.2% | viability at 48 h, 0.5 uM ([3]; %cell viability, Vero E6, niclosamide 0.5 uM, replicates): 20.1% | %cell viability (Calu-3 cells; niclosamide 0.019531 uM): 102.92% | %cell viability (Calu-3 cells; niclosamide 0.039063 uM): 104.17% | %cell viability (Calu-3 cells; niclosamide 0.078125 uM): 109.86% | %cell viability (Calu-3 cells; niclosamide 0.15625 uM): 107.64% | %cell viability (Calu-3 cells; niclosamide 0.3125 uM): 99.17% | %cell viability (Calu-3 cells; niclosamide 0.625 uM): 104.86% | %cell viability (Calu-3 cells; niclosamide 1.25 uM): 97.36% | %cell viability (Calu-3 cells; niclosamide 2.5 uM): 82.64% | %cell viability (Calu-3 cells; niclosamide 5 uM): 54.44% | cell viability (Calu-3 cells; Niclosamide 0.05 uM alone): 96.54 and 92.66 | cell viability (Calu-3 cells; Niclosamide 0.10 uM alone): 89.85 and 85.75 | cell viability (Calu-3 cells; Niclosamide 0.20 uM alone): 98.27 and 86.39 | cell viability (Calu-3 cells; Niclosamide 0.40 uM alone): 103.02 and 98.49 | CC50 at 48 h [4]: 5620 nM | viability at 48 h, 0.019531 uM ([4]; %cell viability, Calu-3, niclosamide 0.019531 uM, replicates): 92.2% | viability at 48 h, 0.039063 uM ([4]; %cell viability, Calu-3, niclosamide 0.039063 uM, replicates): 102% | viability at 48 h, 0.078125 uM ([4]; %cell viability, Calu-3, niclosamide 0.078125 uM, replicates): 109% | viability at 48 h, 0.15625 uM ([4]; %cell viability, Calu-3, niclosamide 0.15625 uM, replicates): 100% | viability at 48 h, 0.3125 uM ([4]; %cell viability, Calu-3, niclosamide 0.3125 uM, replicates): 100% | viability at 48 h, 0.625 uM ([4]; %cell viability, Calu-3, niclosamide 0.625 uM, replicates): 107% | viability at 48 h, 1.25 uM ([4]; %cell viability, Calu-3, niclosamide 1.25 uM, replicates): 96.5% | viability at 48 h, 2.5 uM ([4]; %cell viability, Calu-3, niclosamide 2.5 uM, replicates): 85% | viability at 48 h, 5 uM ([4]; %cell viability, Calu-3, niclosamide 5 uM, replicates): 59.4% | %inhibition (qRT-PCR) (SARS-CoV-2 [5]; Vero E6, niclosamide 0.00390625 uM): 21.23% and 16.04% and 7.08% | %inhibition (qRT-PCR) (SARS-CoV-2 [5]; Vero E6, niclosamide 0.0078125 uM): 27.36% and 22.17% and 24.53% | %inhibition (qRT-PCR) (SARS-CoV-2 [5]; Vero E6, niclosamide 0.015625 uM): 29.25% and 17.92% and 28.30% | %inhibition (qRT-PCR) (SARS-CoV-2 [5]; Vero E6, niclosamide 0.03125 uM): 29.72% and 33.96% and 20.28% | %inhibition (qRT-PCR) (SARS-CoV-2 [5]; Vero E6, niclosamide 0.0625 uM): 52.36% and 36.32% and 72.26% | %inhibition (qRT-PCR) (SARS-CoV-2 [5]; Vero E6, niclosamide 0.125 uM): 95.05% and 87.83% and 93.92% | % inhibition (SARS-CoV-2 [5]; Niclosamide 0.01125 uM alone): 6.05% and 30.26% and 19.89% and 3.41% | % inhibition (SARS-CoV-2 [5]; Niclosamide 0.0225 uM alone): 31.70% and 37.15% and 50.00% | % inhibition (SARS-CoV-2 [5]; Niclosamide 0.045 uM alone): 62.37% and 59.41% and 53.57% | % inhibition (SARS-CoV-2 [5]; Niclosamide 0.09 uM alone): 75.85% and 79.12% and 97.76% and 97.32% | IC50 (SARS-CoV-2 [5]; read-out: IC50 (μM) qRT-PCR, Vero E6, MOI 0.01, 48 hours, single drug): 0.043 µM
